Measurements reported in ChEMBL document CHEMBL1157539, “Thousands of chemical starting points for antimalarial lead identification” (Nature, 2010).

The molecules below were run on Plasmodium falciparum (assay: GSK_TCMDC: Inhibition of Plasmodium falciparum 3D7 in whole erythrocytes, using parasite LDH activity as an index of growth.). Settings: Plasmodium falciparum, 3D7.
Assay type: functional, organism-based
Molecule `Cc1ccc(NC(=O)N2CCCN(CCCCCNC(=O)/C=C/c3ccc(Cl)c(Cl)c3)CC2)cc1` has an XC50 of 758 nM. With `O=C(O)c1ccc2nc(-c3ccccn3)c(-c3ccccn3)nc2c1` the XC50 was 217 nM. With `COc1ccc2ncc(F)c([C@@H](O)CN3CCC(NCc4cc(C#N)c5c(c4)CCO5)CC3)c2n1` the XC50 was 889 nM. `O=C(/C=C/c1ccc(Cl)c(Cl)c1)NC1CCC(CN2CCC(c3c[nH]c4ccccc34)C(O)C2)CC1` (stereo unspecified) showed an XC50 of 719 nM. For `Cc1nn(CC(O)Cn2c3ccc(Br)cc3c3cc(Br)ccc32)c(C)c1Br` (stereo unspecified), the XC50 was 713 nM. Molecule `Clc1ccc(Cl)c2[nH]c(CNCCCNc3nc4ccccc4[nH]3)cc12` has an XC50 of 163 nM. `Cc1cc(N[C@@H](Cc2ccccc2)C(=O)NCc2cccc(F)c2)nc(Nc2ccccc2)n1` was tested, and the XC50 was 930 nM. Work on `c1cncc(Oc2ccc(Nc3ccnc4cc(-c5cccc(CN6CCCCC6)c5)ccc34)cc2)c1` yielded an XC50 of 124 nM. In the case of `CS(=O)(=O)N1CC2(CCN(CCC(NC(=O)/C=C/c3ccccc3)c3ccc(Cl)c(Cl)c3)CC2)c2ccccc21` (stereo unspecified), the XC50 is reported as 782 nM. Work on `CCCCCC(C)C(C)c1cc(O)c2c(c1)OC(C)(C)CC2(O)c1ccnn1C` (stereo unspecified) yielded an XC50 of 964 nM. In the case of `O=c1cc(NCCCNCc2[nH]c3cc(Cl)ccc3c2Cl)[nH]c2ccccc12`, the XC50 is reported as 910 nM. For `CC(=O)/N=C1\N=C(NC(C)=O)NC(C)(C)N1OCCCOc1ccc(Cl)c(Cl)c1`, the XC50 was 8.33 nM. `NCC(=O)c1cc2c(cc1N)OCCO2` showed an XC50 of 1360 nM. Work on `CCc1cc(Br)c(CNCCCNc2cc(=O)c3ccccc3[nH]2)s1` yielded an XC50 of 949 nM. In the case of `Fc1cccc(COc2ccc(Nc3ncnc4cc(/C=C/[C@@H]5CCCN5)sc34)cc2Cl)c1`, the XC50 is reported as 592 nM. Molecule `COc1ccc(S(=O)(=O)N(CC(=O)NN=C(C)c2cccs2)c2cc(C)cc(C)c2)cc1OC` has an XC50 of 141 nM. In the case of `COc1cc(CN2CCC(C(=O)Nc3ccc(-c4cccc(C)c4)cc3)CC2)ccc1O`, the XC50 is reported as 1120 nM. For `N=c1c2nc(-c3c(F)cccc3Cl)[nH]c(=O)c2[nH]c(=O)n1-c1ccccc1`, the XC50 was 678 nM. For `O=C(Nc1cccc(CN2CCN(Cc3ccc(O)cc3)CC2)c1)c1cccc(C(F)(F)F)c1`, the XC50 was 1210 nM. `CC(C)Oc1ccc(CCCON2C(=N)N=C(N)NC2(C)C)cc1` was tested, and the XC50 was 3.2 nM. With `COc1cc(CNC[C@@H](O)[C@H](Cc2ccccc2)NC(=O)c2cc(C3CCCC3)cc(N3CCCS3(=O)=O)c2)cc(OC)c1` the XC50 was 1240 nM. `CCOC(=O)c1c(C)noc1Nc1ccc(OC)cc1` showed an XC50 of 672 nM. `CC(CCCCC(=O)Nc1ccc(CC(C)NCCc2cccc(Cl)c2)cc1)NCCc1cccc(Cl)c1` (stereo unspecified) showed an XC50 of 1010 nM. `COc1ccc(NC(=O)/C=C/c2ccccc2Cl)cc1OCCN1CCC(N(C)C)CC1` was tested, and the XC50 was 969 nM. `COc1cccc(CN2CCCN(Cc3cccc(NC(=O)c4cc5ccccc5s4)c3)CC2)c1` showed an XC50 of 1010 nM. In the case of `N=C(N)NC(=O)Nc1cc(Cl)c(Cl)c(Cl)c1`, the XC50 is reported as 588 nM. For `CN1CCN(c2ccnc3ccc(NC(=O)Nc4ccc(Cl)c(Cl)c4)cc23)CC1`, the XC50 was 876 nM. `CS(=O)(=O)CCNCc1cccc(-c2ccc3c(Nc4ccc(Oc5ccccc5)cc4)ccnc3c2)c1` was tested, and the XC50 was 691 nM. In the case of `COc1ccc(CN2CCC(CNCC(c3ccccc3)c3ccccc3)CC2)cc1`, the XC50 is reported as 228 nM. `Clc1ccc(OCCC2CCN(CCCCCCN3CCCCC3)CC2)cc1Cl` gave an XC50 of 1140 nM. Molecule `CCOC(=O)c1ccc(NC(=O)Nc2ccc(-c3ccc(-c4nc5cccc(C)c5[nH]4)s3)cc2)cc1` has an XC50 of 199 nM. `N#CCCN1CCN(Cc2cccc(-c3ccc(-c4nc5cc(F)ccc5[nH]4)cc3)c2)CC1` gave an XC50 of 599 nM. `Oc1cc2c(cc1CN1CCN(Cc3cccs3)CC1)CCC2` gave an XC50 of 839 nM. Molecule `O=C1CCCN1CCCNCc1cccc(-c2ccc(-c3nc4ccccc4[nH]3)s2)c1` has an XC50 of 859 nM. In the case of `Cc1cccc2c3c([nH]c12)C1(CCN(CCc2ccccc2)CC1)NC(C(=O)NCc1ccccc1)C3` (stereo unspecified), the XC50 is reported as 1000 nM. `FC(F)(F)Oc1ccc(Nc2cc(-c3ccncc3)nc(-c3cccnc3)n2)cc1` showed an XC50 of 672 nM. In the case of `CC(C)N1CCC(NCc2ccc(-c3ccc(Cl)cc3)cc2)CC1`, the XC50 is reported as 646 nM. With `CCOC(=O)C(Oc1ccc2ccccc2c1)C(=O)OCC` the XC50 was 756 nM. With `CC(=O)c1cccc(S(=O)(=O)NCCCNc2nc3cc(C)cc(C)c3cc2C#N)c1` the XC50 was 914 nM. `c1ccc2c(NCCCCCCNc3c4c(nc5ccccc35)CCCC4)c3c(nc2c1)CCCC3` showed an XC50 of 196 nM. `CCCCN1CCN(Cc2cccc(NC(=O)c3ccc(Cl)c(Cl)c3)c2)CC1` gave an XC50 of 1160 nM. `CC(C)(Oc1c(C2CCN(CCCCNC(=O)c3ccc(-c4ccc(Cl)cc4)cc3)CC2)ccc2c1CCCC2)C(N)=O` gave an XC50 of 1090 nM. In the case of `CNC(=O)c1ccc2nc(C3CC3)n(CC3CCN(S(=O)(=O)c4cccc(Cl)c4)CC3)c2c1`, the XC50 is reported as 651 nM. `Cc1cc(NCc2ccccc2)nc2cc(O)ccc12` was tested, and the XC50 was 784 nM. `CC(C)n1c(C2CCN(CC3CCN(C(=O)/C=C/c4ccc(Cl)c(Cl)c4)CC3)CC2)nc2ccccc21` showed an XC50 of 1030 nM. `Cc1cc2nc(-c3ccc(C(=O)NC4CCN(Cc5ccccc5)CC4)cc3)[nH]c2cc1C` was tested, and the XC50 was 743 nM. For `Oc1ccc(CCCc2cc(Oc3c(I)cc(CCc4ncc[nH]4)cc3I)ccc2O)cc1`, the XC50 was 873 nM. In the case of `O=C(NCC1Cc2cc(Oc3ccccc3)ccc2O1)c1ccc([N+](=O)[O-])o1` (stereo unspecified), the XC50 is reported as 917 nM. For `CC(C)n1cc(CN2CCCC(C(=O)Nc3cccc(-c4cc5ccccc5[nH]4)c3)C2)cn1` (stereo unspecified), the XC50 was 999 nM. In the case of `CCc1n[nH]c(C(=O)Nc2cccc(N3CCCC3)c2)c1C`, the XC50 is reported as 1460 nM. Molecule `COc1ccc(Cn2c(Nc3cccc(C(F)(F)F)c3)nc3ccc(C(=O)NCCN4CCCC4)cc32)cc1Cl` has an XC50 of 753 nM. `CC(=NNC(S)=NC(C)(C)C)c1ccccn1` showed an XC50 of 158 nM. `O=C(NC1CCN(Cc2ccccc2O)C1)c1ccc(-c2ccccc2)cc1` (stereo unspecified) gave an XC50 of 838 nM. For `N#Cc1ccc2c(c1)CCN(CCC1CCC(NC(=O)Nc3cnc4ccccc4c3)CC1)C2` (stereo unspecified), the XC50 was 768 nM. Molecule `Cc1ccc2[nH]c(-c3cc(-c4ccc(OCc5ccccc5)cc4)cnc3N)nc2c1` has an XC50 of 1680 nM. For `O=C(O)c1ccc(NC(=O)C2CC(=O)N(Cc3ccc(Cl)cc3)C(=Nc3ccc(Cl)cc3)S2)cc1` (stereo unspecified), the XC50 was 530 nM. For `CCNC(=O)CCc1cccc(Br)c1`, the XC50 was 533 nM. With `Cc1cc(N(C)C)nc(Nc2ccc(NC(=O)C(C)Oc3ccccc3)cc2)n1` (stereo unspecified) the XC50 was 952 nM. `CC[C@H]1CN2CC[C@@H]1C[C@H]2[C@H](O)c1cc(N2CCC(CO)CC2)nc2ccc(OC)cc12` showed an XC50 of 162 nM. `COc1ccc(CCCCN2C(=O)C(c3ccccc3)(c3ccccc3)N=C2N)cc1` gave an XC50 of 858 nM. Molecule `N#Cc1ccc2c(c1)CCN(CCC1CCC(NC(=O)c3cc4ccc(Br)cc4[nH]3)CC1)C2` (stereo unspecified) has an XC50 of 756 nM. Molecule `COc1ccc(CN2CCC(CNCCc3ccccc3Oc3ccccc3)CC2)cc1` has an XC50 of 1100 nM. `Cc1cc(N2CC=CCC2)nc(NC(=N)Nc2ccc(Br)cc2)n1` showed an XC50 of 690 nM. `Cc1cc(-c2cccc(CNC3CCN(C)CC3)c2)ccc1S(=O)(=O)NCc1ccccc1` was tested, and the XC50 was 819 nM. Molecule `CCN(CC)CCCC(C)Nc1ccnc2cc(C#N)ccc12` (stereo unspecified) has an XC50 of 139 nM. `CN1CCN(Cc2cc(NC(=O)c3ccc(-c4ccc(Cl)cc4Cl)cc3)ccc2-c2ccccc2)CC1` showed an XC50 of 973 nM. `CCOc1ccc2c(=NN=Cc3cccc(F)c3)cc(C)[nH]c2c1` showed an XC50 of 714 nM. With `CC(C)(C)c1cc([N+](=O)[O-])cc(C(=O)Nc2ccccc2C(F)(F)F)c1O` the XC50 was 652 nM. With `COc1ccc(CNC2CCN(C)CC2)cc1-c1ccc(S(=O)(=O)NCc2ccccc2)c(F)c1` the XC50 was 800 nM. Work on `N=C1N=C(N)NC2(CCCCC2)N1OCC1CCCCC1` yielded an XC50 of 155 nM. In the case of `CC(C)N1CCC(NC(=O)N2CCCN(c3ncnc4cc(-c5ccc(Cl)cc5)sc34)CC2)CC1`, the XC50 is reported as 1940 nM. `c1ccc(C(c2cccs2)N2CCN(Cc3ccc(OCCCN4CCCCC4)cc3)CC2)cc1` (stereo unspecified) was tested, and the XC50 was 1230 nM. For `O=C(/C=C/c1ccc(Cl)c(Cl)c1)N1CCN(C(=O)Nc2ccc(C(F)(F)F)cc2)CC1`, the XC50 was 666 nM. Work on `CCN(CC)CC(O)c1cc(-c2ccc(C)cc2)nc2c(C)cc(C)cc12` (stereo unspecified) yielded an XC50 of 171 nM. For `CC(C)Cn1c(N)cc(=O)n(C)c1=O`, the XC50 was 978 nM. `CC1CCCCN1CCCNC(=O)c1cccc(-c2cc3cc(Cl)c(Cl)cc3[nH]2)c1` (stereo unspecified) gave an XC50 of 881 nM. Work on `CC(=NO)C1=C(O)C(c2ccccc2)N(c2ccccc2)C1=O` (stereo unspecified) yielded an XC50 of 701 nM. `CCOc1cccc(C(=O)Nc2ccc(-c3nc4ccccc4[nH]3)cc2)c1` was tested, and the XC50 was 1010 nM. Molecule `CS(=O)(=O)c1ccc2[nH]c(-c3cc(-c4cccc(F)c4)cnc3N)nc2c1` has an XC50 of 1090 nM. With `Fc1cccc(Cl)c1-c1nc(NCCC(c2ccccc2)c2ccccc2)no1` the XC50 was 546 nM. For `Cn1c(-c2ccccc2)cc2c3c(=O)cc(C(F)(F)F)[nH]c3ccc21`, the XC50 was 849 nM. For `CC(C)Cc1cn(-c2nc(-c3nc4ccccc4[nH]3)cs2)c2ccncc12`, the XC50 was 90 nM. With `CCCNc1ccc2nccc(CCN3CCC(NCc4ccc5c(c4)NC(=O)CS5)CC3)c2n1` the XC50 was 580 nM. With `OCCn1c(CNCCCNc2nc3ccccc3[nH]2)cc2c(Cl)cc(Cl)cc21` the XC50 was 806 nM. With `O=C(Nc1cccc(CN2CCN(Cc3cccc(O)c3)CC2)c1)c1ccc(Cl)c(Cl)c1` the XC50 was 411 nM. Work on `Cn1c2c(c3ccccc31)CN(CCC1(c3ccc(Cl)c(Cl)c3)CN(C(=O)c3ccccc3)CCO1)CC2` (stereo unspecified) yielded an XC50 of 311 nM. For `CCc1nonc1NC(=O)c1oc2c(C)c(C)ccc2c1C`, the XC50 was 879 nM. `Cn1c(Sc2ncnc3sccc23)nc2ccccc21` gave an XC50 of 191 nM. For `CCOc1ccc(C(=O)Nc2cc(Br)c3c(c2)CNCC3)cc1C(F)(F)F`, the XC50 was 939 nM. In the case of `COc1ccc(S(=O)(=O)NCCCC2CCN(CCCCCNC(=O)C=Cc3ccc(Cl)c(Cl)c3)CC2)cc1`, the XC50 is reported as 1040 nM. Work on `c1ccc(-c2n[nH]cc2Nc2ccnc3ccccc23)nc1` yielded an XC50 of 819 nM. `Cn1c(N)cc(-c2cccc(I)c2)c2c(=O)nc(N)nc1-2` was tested, and the XC50 was 269 nM. `c1cc(CN2CCN(CCN3CCOCC3)CC2)cc(-c2ccc(-c3nc4ccccc4[nH]3)cc2)c1` gave an XC50 of 131 nM. Molecule `COc1cc(OC)c(OC)cc1CN1CCC2(CC1)CN(Cc1ccc(Cl)c(Cl)c1)C(=O)O2` has an XC50 of 815 nM. For `CCN(CCNC(=O)Nc1cc(C(F)(F)F)cc(C(F)(F)F)c1)c1cccc(C)c1`, the XC50 was 804 nM. Work on `O=C(/C=C/c1ccc(Cl)cc1)NCCCCCN1CCC(C(=O)Nc2ccc(Cl)cc2)CC1` yielded an XC50 of 832 nM. Work on `CN1CC=C(c2c[nH]c3ccc(C(=O)c4nccs4)cc23)CC1` yielded an XC50 of 242 nM. `O=C(/C=C/c1ccc(Cl)cc1)Nc1ccc2nc(CN3CCCC3)ccc2c1` was tested, and the XC50 was 82.1 nM. In the case of `Cc1cccc2nc(-c3cccc(-c4ccc(NC(=O)CN5CCN(C)CC5)cc4)c3)[nH]c12`, the XC50 is reported as 562 nM. `COc1cccc(OC)c1C(=O)Nc1cccc(-c2nn3ccccc3c2-c2ccnc(Nc3cccc(F)c3)n2)c1` gave an XC50 of 749 nM. For `CCCN1CCC(NCc2cn(C)nc2-c2ccc(Oc3ccccc3)cc2)CC1`, the XC50 was 1440 nM.
